# From US20200405697A1, “Antitumor Agent” (Taiho Pharmaceutical Co., Ltd, priority 2017, published 2020)
# Molecular target: T1, human RNR (histidine tagged human M1 and human M2 proteins) (Homo sapiens, UniProt P23921)
# T1 construct: made in house; host or cells: Escherichia coli
# T1 sequence (P23921 1-792): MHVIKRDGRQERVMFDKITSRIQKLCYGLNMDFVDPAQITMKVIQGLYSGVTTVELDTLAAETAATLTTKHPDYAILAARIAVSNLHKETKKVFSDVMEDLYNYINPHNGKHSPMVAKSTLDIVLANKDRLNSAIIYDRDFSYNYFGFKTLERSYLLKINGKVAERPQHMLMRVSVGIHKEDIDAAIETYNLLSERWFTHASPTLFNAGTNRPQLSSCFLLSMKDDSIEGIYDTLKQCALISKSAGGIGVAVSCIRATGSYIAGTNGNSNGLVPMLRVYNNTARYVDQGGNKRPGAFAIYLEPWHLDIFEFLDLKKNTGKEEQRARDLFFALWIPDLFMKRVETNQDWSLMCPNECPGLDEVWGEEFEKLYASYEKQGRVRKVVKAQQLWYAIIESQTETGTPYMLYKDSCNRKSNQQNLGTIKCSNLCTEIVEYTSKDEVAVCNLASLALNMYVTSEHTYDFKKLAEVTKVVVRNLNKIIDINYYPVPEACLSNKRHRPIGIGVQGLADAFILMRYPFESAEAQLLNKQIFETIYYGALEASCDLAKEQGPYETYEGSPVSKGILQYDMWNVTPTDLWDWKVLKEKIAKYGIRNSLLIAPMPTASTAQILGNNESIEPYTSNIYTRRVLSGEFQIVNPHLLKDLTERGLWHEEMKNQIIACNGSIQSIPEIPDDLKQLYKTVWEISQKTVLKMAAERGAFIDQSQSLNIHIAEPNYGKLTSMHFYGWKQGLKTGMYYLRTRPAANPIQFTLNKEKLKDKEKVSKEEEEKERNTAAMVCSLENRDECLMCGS
# Experiment: Human RNR inhibition effect (dCDP formation from CDP)
# Type: biochemical
# Settings: 10 μM CDP, 37° C. for 30 minutes, read-out: RNR inhibitory activity IC50
# Experimental: The inhibitory activity against the ribonucleotide reduction reaction (RNR inhibitory activity) of the Example compound was determined by measuring the formation of deoxycytidine diphosphate (hereinafter referred to as dCDP) from cytidine diphosphate (hereinafter referred to as CDP) by the following method.
# Human M1 subunit (isoform 1, GenBank accession No: NM_001033), to which a histidine tag is fused at the amino terminus, and human M2 subunit (mutant lacking amino terminal 59 amino acids of isoform 2, GenBank accession No: NM_001034), to which a histidine tag is fused, were overexpressed in Escherichia coli and were solubilized after collection, and histidine tagged human M1 and histidine tagged human M2 proteins were purified on a nickel chelate column. A mixture of the histidine tagged human M1 and histidine tagged human M2 proteins was used as RNR in the ribonucleotide reduction reaction. [to]
# First, Example compounds were serially diluted with DMSO. Next, human M1 protein and human M2 protein were added to a 0.02% aqueous albumin solution derived from fetal bovine serum, a DMSO solution of the Example compound or the control DMSO solution (final concentration of DMSO was 1%) was added, and the mixture was allowed to stand for 20 minutes. Thereafter, the reaction buffer [50 mM HEPES buffer (pH 7.2) at the final concentration, 4 mM magnesium acetate at the final concentration, 100 mM potassium chloride at the final concentration, 6 mM dithiothreitol at the final concentration, 2 mM adenosine triphosphate at the final concentration, 0.24 mM nicotinamide adenine dinucleotide phosphate at final concentration] and 10 μM CDP at the final concentration were added and incubated at 37° C. for 30 minutes to perform ribonucleotide reduction reaction. Immediately after the reaction, the reaction was stopped by heating at 100° C. for 15 minutes, followed by centrifugation at 10,000 rpm for 10 minutes. After the centrifugation, a portion (5 μL) of the resulting supernatant was analyzed with a high performance liquid chromatography (Shimadzu Corporation, Prominence) using Shim-pack XR-ODS (manufactured by Shimadzu GLC Co., 3.0×100 mm).
row,SMILES,IC50 [nM]
1,"Cc1ccc(F)c([C@@H](C)[C@H](NS(=O)(=O)c2ccc(Cl)cc2N)c2n[nH]c(=O)o2)c1C [Example 271, 2-amino-4-chloro-N-((1S,2R)-2-(6-fluoro-2,3-dimethylphenyl)-1-(5-oxo-4,5-dihydro-1,3,4-oxadiazol-2-yl)propyl)benzenesulfonamide]",230
2,"COc1cc(N)ccc1S(=O)(=O)N[C@H](c1n[nH]c(=O)o1)[C@H](C)c1c(F)ccc2ccccc12 [Example 265, 4-amino-N-((1S,2R)-2-(2-fluoronaphthalen-1-yl)-1-(5-oxo-4,5-dihydro-1,3,4-oxadiazol-2-yl)propyl)-2-methoxybenzenesulfonamide]",260
3,"Cc1ccc(F)c([C@@H](C)[C@H](NS(=O)(=O)c2ncc(Cl)cc2C(=O)O)c2n[nH]c(=O)o2)c1C [Example 213, 5-chloro-2-(N-((1S,2R)-2-(6-fluoro-2,3-dimethylphenyl)-1-(5-oxo-4,5-dihydro-1,3,4-oxadiazol-2-yl)propyl)sulfamoyl)nicotinic acid]",500
4,"Cc1c(Br)ccc(F)c1[C@@H](C)[C@H](NS(=O)(=O)c1ccc(F)c2c1OCCC2(C)O)c1n[nH]c(=O)o1 (single isomer, unassigned) [Example 227B]",90
5,"Cc1ccc(F)c([C@@H](C)[C@H](NS(=O)(=O)c2ccc(Cl)cc2C(=O)NO)c2n[nH]c(=O)o2)c1C [Example 286, 5-chloro-2-(N-((1S,2R)-2-(6-fluoro-2,3-dimethylphenyl)-1-(5-oxo-4,5-dihydro-1,3,4-oxadiazol-2-yl)propyl)sulfamoyl)-N-hydroxybenzamide]",70

# The remaining lines, values ahead:
row,IC50 [nM],SMILES
1,160,"COc1cc(Cl)ccc1S(=O)(=O)N[C@H](c1n[nH]c(=O)o1)[C@H](C)c1c(F)ccc(-c2cnn(C(F)F)c2)c1C [Example 304, 4-chloro-N-((1S,2R)-2-(3-(1-(difluoromethyl)-1H-pyrazol-4-yl)-6-fluoro-2-methylphenyl)-1-(5-oxo-4,5-dihydro-1,3,4-oxadiazol-2-yl)propyl)-2-methoxybenzenesulfonamide]"
2,440,"Cc1ccc(F)c([C@@H](C)[C@H](NS(=O)(=O)c2ccc(Cl)cc2OCC(F)F)c2n[nH]c(=O)o2)c1C [Example 145, 4-chloro-2-(2,2-difluoroethoxy)-N-((1S,2R)-2-(6-fluoro-2,3-dimethylphenyl)-1-(5-oxo-4,5-dihydro-1,3,4-oxadiazol-2-yl)propyl)benzenesulfonamide]"
3,60,"Cc1ccc(F)c([C@@H](C)[C@H](NS(=O)(=O)c2cc(C(C)(C)O)ccc2C(N)=O)c2n[nH]c(=O)o2)c1C [Example 197, 2-(N-((1S,2R)-2-(6-fluoro-2,3-dimethylphenyl)-1-(5-oxo-4,5-dihydro-1,3,4-oxadiazol-2-yl)propyl)sulfamoyl)-4-(2-hydroxypropan-2-yl)benzamide]"
4,910,"Cc1ccc(F)c([C@@H](C)[C@H](NS(=O)(=O)c2ccc(Cl)cc2C(=O)NOCc2ccccc2)c2n[nH]c(=O)o2)c1C [Example 282, N-(benzyloxy)-5-chloro-2-(N-((1S,2R)-2-(6-fluoro-2,3-dimethylphenyl)-1-(5-oxo-4,5-dihydro-1,3-oxadiazol-2-yl)propyl)sulfamoyl)benzamide]"
5,90,"Cc1ccc(F)c([C@@H](C)[C@H](NS(=O)(=O)c2ccc(F)c(C(C)(C)O)c2F)c2n[nH]c(=O)o2)c1C [Example 186, 2,4-difluoro-N-((1S,2R)-2-(6-fluoro-2,3-dimethylphenyl)-1-(5-oxo-4,5-dihydro-1,3,4-oxadiazol-2-yl)propyl)-3-(2-hydroxypropan-2-yl)benzenesulfonamide]"
6,70,"Cc1c(Cl)ccc(F)c1[C@@H](C)[C@H](NS(=O)(=O)c1ncc(Br)cc1C(N)=O)c1n[nH]c(=O)o1 [Example 254, 5-bromo-2-(N-((1S,2R)-2-(3-chloro-6-fluoro-2-methylphenyl)-1-(5-oxo-4,5-dihydro-1,3,4-oxadiazol-2-yl)propyl)sulfamoyl)nicotinamide]"
